In publication PMC8064871 (International Journal of Biological Macromolecules, 2021):
Structures can show the parent of a compound that is named as a salt.

Tests used:
SARS-CoV-2 3CL^pro [1] = target: T1, SARS-CoV-2 3CL^pro (Severe acute respiratory syndrome coronavirus 2, UniProt P0DTD1); assay: Enzymatic inhibition assay of SARS-CoV-2 3CLpro by FRET; type: biochemical; settings: for inhibitory activity against SARS-CoV-2 3CL^pro (in words): concentrations 0, 1, 10, 100 μM
SARS-CoV-2 3CL^pro [2] = target: T1, SARS-CoV-2 3CL^pro; settings: incubation 5-40 min at 37 °C; kobs = (k inact·[I])/(K I + [I])
SARS-CoV-2 3CL^pro [3] = target: T1, SARS-CoV-2 3CL^pro; assay: Intact protein molecular weight analysis by mass spectrometry; type: binding; settings: 8.4 μM protease, 90 μM compound, 30 min at 37 °C
SARS-CoV-2 3CL^pro [4] = target: T1, SARS-CoV-2 3CL^pro; assay: biochemical; settings: IC50 against SARS-CoV-2 3CL^pro, incubation 3 min

## COc1cc(C(=O)NS(=O)(=O)c2ccccc2C)ccc1Cc1cn(C)c2ccc(NC(=O)OC3CCCC3)cc12 [Zafirlukast, reference compound]
SARS-CoV-2 3CL^pro [1]
  IC50: 46.7 µM

## O=C1C=C(O)C(=O)c2ccccc21 [Entry 4, 2-Hydroxy-1,4-naphthoquinone]
SARS-CoV-2 3CL^pro [1]
  IC50: > 100 µM
  inhibitory activity against SARS-CoV-2 3CL^pro (in words): almost lose their inhibitory activities

## O=C1C=C(Cl)C(=O)c2ccccc21 [Entry 3, 2-Chloro-1,4-naphthoquinone]
SARS-CoV-2 3CL^pro [1]
  IC50: 1.92 ± 0.49 µM

## O=NN(CCCl)C(=O)NC1CCCCC1 [Lomustine, reference compound]
SARS-CoV-2 3CL^pro [1]
  IC50: 5.86 µM

## CC1=CC(=O)c2c(O)cccc2C1=O [Entry 8, 2-Methyl-5-hydroxy-1,4-naphthoquinone]
SARS-CoV-2 3CL^pro [1]
  IC50: 1.32 ± 0.33 µM

## N=C(N)c1ccc2cc(OC(=O)c3ccc(N=C(N)N)cc3)ccc2c1 [Nafamostat Mesylate, reference compound]
SARS-CoV-2 3CL^pro [1]; read-out: residual activity of the protease
  remaining activity at 100 µM: ~60%

## O=C1C=CC(=O)c2c(O)ccc(O)c21 [Entry 7, 5,8-Dihydroxy-1,4-naphthoquinone]
SARS-CoV-2 3CL^pro [2]
  K I (inhibition constant): 3.05 µM
SARS-CoV-2 3CL^pro [3]
  proteins bound with one compound: 80%
  proteins bound with two compounds: about 10%
  proteins covalently bound (total): about 90%
SARS-CoV-2 3CL^pro [1]
  IC50: 0.49 ± 0.11 µM
SARS-CoV-2 3CL^pro [1]; ratio of IC50 values against SARS-CoV-2 3CL^pro
  times higher inhibitory activity than Vitamin K3: 9.8 times
SARS-CoV-2 3CL^pro [4]
  IC50: 790 nM

## CC1=C(C/C=C(\C)CCC[C@H](C)CCC[C@H](C)CCCC(C)C)C(=O)c2ccccc2C1=O [Vitamin K1, reference compound]
SARS-CoV-2 3CL^pro [1]
  inhibitory activity against SARS-CoV-2 3CL^pro (in words): no inhibition at the high and middle concentration

## O=C1C=CC(=O)c2ccccc21 [Entry 2, 1,4-Naphthoquinone]
SARS-CoV-2 3CL^pro [1]
  IC50: 0.69 ± 0.13 µM

## CC1=CC(=O)c2ccccc2C1=O [Entry 1, 2-Methyl-1,4-naphthoquinone (vitamin K3), reference compound]
SARS-CoV-2 3CL^pro [2]
  K I (inhibition constant): 112.2 µM
SARS-CoV-2 3CL^pro [3]
  proteins bound with one compound: 55%
  proteins bound with two compounds: about 15%
  proteins covalently bound (total): about 70%

## O=C1C=CC(=O)c2c(O)cccc21 [Entry 6, 5-Hydroxy-1,4-naphthoquinone]
SARS-CoV-2 3CL^pro [1]
  IC50: 4.11 ± 0.24 µM

## NC1=C(Cl)C(=O)c2ccccc2C1=O [Entry 5, 2-Amino-3-chloro-1,4-naphthoquinone]
SARS-CoV-2 3CL^pro [1]
  IC50: > 100 µM
  inhibitory activity against SARS-CoV-2 3CL^pro (in words): almost lose their inhibitory activities

## CC(=O)Oc1cc(C)c(OC(C)=O)c2ccccc12 [Vitamin K4, reference compound]
SARS-CoV-2 3CL^pro [1]
  inhibitory activity against SARS-CoV-2 3CL^pro (in words): lost its inhibitory activity
